Source: US10214746B2, “Soybean transformation method” (Dow AgroSciences LLC, priority 2013, dated 2019)
Entries after “also recorded” stand apart in the source; their conditions may differ.

Legend:
soybean shoots = experiment: Rooting medium selection of aad-12 transformed soybean shoots with 2,4-D; format: in vivo, soybean (cv. Maverick); conditions: aad-12 transgene; rooting medium with 2,4-D about 2 to 120 mg/L
Method: Transformed soybean seed can be cultivated using a modified tissue culture protocol as described in U.S. Filing No. 61/739,349, herein incorporated by reference, wherein the selective agent is 2,4-D. Co-cultivation of the soybean plant seeds with Agrobacterium, can be carried out for 5 days on co-cultivation medium covered with a filter paper. After 5 days of incubation on the co-cultivation medium, the explants can be washed in liquid Shoot Induction (SI) medium for about 5 to 10 minutes. The explants can then be cultured onto Shoot Induction-I (SI-I) medium. The soybean seeds are oriented so the flat side of the soybean seed face up and the nodal end of the soybean cotyledon is imbedded into the SI-I medium. After 2 weeks of culture at 24° C. with an 18 hour photoperiod, the explants can be transferred to the Shoot Induction-II (SI-II) medium supplemented with 2 to 120 mg/L 2,4-D. After 2 weeks on SI-II medium, the cotyledons can be removed from the explants, wherein a flush shoot pad is excised by making a cut at the base of the cotyledon, and the isolated shoot is transferred to the Shoot Elongation (SE) medium. The cultures can be transferred to fresh SE medium every two weeks. PETRI™ dishes may not be wrapped with filter paper throughout the shoot induction and shoot elongation stages. […]

[1] = tested on: transgenic soybean shoots; experiment: Root development and yellow fluorescence protein expression of pDAB9381-transformed soybean shoots on rooting medium with glufosinate; format: in vivo, Glycine max
Method: The transformed soybean seeds were cultivated using the tissue culture protocol as described in U.S. Filing No. 61/739,349, herein incorporated by reference. Co-cultivation of the soybean plant seeds with an Agrobacterium strain containing the pDAB9381 plasmid was carried out for 5 days on co-cultivation medium covered with a filter paper. After 5 days of incubation on the co-cultivation medium, the explants were washed in liquid Shoot Induction (SI) medium for about 5 to 10 minutes. The explants were then cultured onto Shoot Induction-I (SI-I) medium. The soybean seeds were oriented so the flat side of the soybean seed faced up and the nodal end of the soybean cotyledon was imbedded into the SI-I medium. After 2 weeks of culture at 24° C. with an 18 hour photoperiod, the explants were transferred to the Shoot Induction-II (SI-II) medium supplemented with 6 mg/L glufosinate. After 2 weeks on SI-II medium, the cotyledons were removed from the explants, a flush shoot pad was excised by making a cut at the base of the cotyledon, and the isolated shoot was transferred to the Shoot Elongation (SE) medium. The cultures were transferred to fresh SE medium every two weeks. PETRI™ dishes were not wrapped with filter paper throughout the shoot induction and shoot elongation stages. Lighting sources were provided with an illumination of 80-90 μmoles s-1m-2 for the transformed tissues during shoot induction and shoot elongation.
The elongated shoots were dipped in 1 mg/L indole 3-butyric acid (IBA) for about 1 to 3 minutes to promote rooting prior to transferring of the isolated shoots to rooting medium (MS salts, B5 vitamins, 28 mg/L ferrous, 38 mg/L Na^2EDTA, 20 g/L sucrose and 0.59 g/L MES, 50 mg/L asparagine, 100 mg/L L-pyroglutamic acid, and 7 g/L NOBLE™ agar, pH 5.6) in phyta trays. A selection agent of glufosinate at a concentration of 1 mg/L was incorporated into the rooting medium for a subset of the transformation experiments.
Following culturing in the rooting medium at 24° C., with an 18 hour photoperiod, for 1-2 weeks, the soybean shoots that produced healthy, viable roots were transferred to soil. The soybean shoots comprising healthy, viable roots were placed in soil which was contained in an open plastic sundae cup. The plastic sundae cups containing the transferred soybean shoots comprising roots were placed in a CONVIRON™ for acclimatization of soybean plantlets. The rooted soybean plantlets were acclimated in the open sundae cups for several weeks before the plantlets were transferred to the greenhouse.
Incorporation of a section agent comprising glufosinate in soybean tissue culture rooting medium was tested to reduce the formation of non-germline, chimeric soybean transformation events and escapes. Following Agrobacterium-mediated transformation of soybean (cv. Maverick) with the binary vector, pDAB9381, soybean shoots were regenerated and cultured onto rooting medium that contained a selection agent comprising glufosinate. After root development was initiated on the rooting media comprising glufosinate, the roots were tested for transgene expression (yellow fluorescence protein).
A total of 531 transgenic soybean shoots were produced using the transformation method described above and transferred onto rooting medium containing the selection agent glufosinate. […] (see Table 2). A correlation was observed between yellow fluorescence protein transgene expression and viable, white root formation, wherein a significant majority of the viable, white roots expressed the yellow fluorescence protein transgene in root tissues. (see FIG. 2, FIG. 3, and FIG. 5). Microscopy results confirmed that about 92% of the soybean plants produced from rooting medium comprising a selection agent were transgenic as these soybean plants expressed the yellow fluorescence protein transgene. (see FIG. 2, FIG. 3, and FIG. 5).

[2] = tested on: transgenic soybean events; experiment: Heritability analysis of transgenic soybean events produced on rooting medium comprising glufosinate (T1 plants sprayed with glufosinate); format: in vivo
Excerpt: A total of 153 transgenic soybean events were isolated and grown to maturity. These soybean events were self-fertilized to produce seed that was obtained and analyzed for heritability. All of the 153 transgenic soybean events were confirmed to contain the yellow fluorescent protein and phosphinothricin acetyltransferase transgenes via molecular analysis in the parental T0 soybean plants. For each of the 153 transgenic soybean events, 15 seeds were obtained and germinated in soil under conventional green house conditions. The transgenic soybean plants were grown to the V1 stage of development and were sprayed with 411 g ae/ha glufosinate, which was used as the exemplary selection agent in this example. After treatment with glufosinate, the soybean plants were observed and graded as resistant or susceptible to glufosinate. The transgenic soybean events that produced at least one T1 seedling were determined to be a heritable event.

[3] = tested on: non-transgenic soybean shoots; experiment: Growth response (rooting) of non-transgenic soybean shoots on rooting medium with glufosinate; format: in vivo
Method: Growth response studies to varying concentrations of selection agent were conducted using non-transgenic soybean shoots. In this example, glufosinate was used as the exemplary selection agent. Soybean shoots were regenerated from split-seed soybean tissues and cultivated on Shoot Induction medium until shoots had developed and were ready for transfer to rooting medium. Several different concentrations of glufosinate (0, 0.25 mg/L, 0.50 mg/L, 1 mg/L, 2 mg/L, 3 mg/L, 4 mg/L, 5 mg/L, and 6 mg/L) were incorporated into rooting medium (MS salts, B5 vitamins, 28 mg/L ferrous, 38 mg/L Na^2EDTA, 20 g/L sucrose and 0.59 g/L MES, 50 mg/L asparagine, 100 mg/L L-pyroglutamic acid, and 7 g/L NOBLE™ agar, pH 5.6) to determine which concentrations of glufosinate inhibited root development. […] However, 90% and 50% of the soybean shoots cultivated in rooting medium containing glufosinate at concentrations of 0.25 mg/L and 0.5 mg/L, respectively, produced roots. (see Table 1). The effective glufosinate concentration for inhibition of soybean shoot growth and development was determined to be at least 1.0 mg/L of glufosinate. Higher concentrations of glufosinate (e.g., concentrations greater than 1.0 mg/L) were effective in inhibiting root development.

[4] = glufosinate 1 mg/L in rooting medium, 531 plants
[5] = root tissues, glufosinate 1 mg/L in rooting medium, 531 plants
[6] = rooting medium comprising glufosinate (1 mg/L)
[7] = Brown/Black Roots on glufosinate rooting medium, 76 events
[8] = Total, 153 T1 events, T1 sprayed with 411 g ae/ha glufosinate
[9] = White Roots on glufosinate rooting medium, 77 events
[10] = glufosinate at least 1 mg/L in rooting medium

SMILES: O=C(O)COc1ccc(Cl)cc1Cl [2,4-D, 2,4-dichlorophenoxyacetic acid]
- transgene expression in viable, white roots (soybean shoots): a significant majority of the viable, white roots express the transgene in root tissues

SMILES: CP(=O)(O)CCC(N)C(=O)O (racemic) [glufosinate, DL-phosphinothricin]
- Number of Plants with Unhealthy, Brown/Black Roots [1, 4]: 212
- Number of Plants with Viable, White Roots [1, 4]: 319
- Plants with Unhealthy, Brown/Black Roots (%) [1, 4]: 40%
- Plants with Viable, White Roots (%) [1, 4]: 60%
- soybean plants produced from rooting medium comprising a selection agent that were transgenic (expressed the yellow fluorescence protein transgene) ([1]; microscopy, shoots with viable, white roots): about 92%
- Number of Plants with YFP Expression [1, 5]: 271
- Number of Plants with no YFP Expression [1, 5]: 260
- Plants with YFP Expression (%) [1, 5]: 51%
- Plants with no YFP Expression (%) [1, 5]: 49%
- root phenotype of germline transformants [1, 6]: produce healthy, viable roots; also recorded: healthy viable roots were produced
- root phenotype of non-germline or chimeric transformants [1, 6]: either do not form roots or develop brown/black roots; also recorded: do not produce viable roots; also recorded: (1) no roots were produced; (2) roots were produced and turned brown; and, (3) roots were produced and turned black
- Percentage of heritable events [2, 7]: 7%
- Percentage of non-heritable events [2, 7]: 93%
- Percentage of heritable events [2, 8]: 48%
- Percentage of non-heritable events [2, 8]: 52%
- Percentage of heritable events [2, 9]: 90%
- Percentage of non-heritable events [2, 9]: 10%
- advanced events with viable, healthy roots confirmed to be germline soybean transformants [2, 10]: about 90%
- non-germline (chimeric) events eliminated based on root phenotype (brown/black roots or no root development) [2, 10]: about 93%
- Percentage of Shoots that Produced Roots ([3]; glufosinate 0.25 mg/L in rooting medium): 90%
- Number of Shoots Producing Roots ([3]; glufosinate 0.25 mg/L, 10 shoots cultivated): 9
- Percentage of Shoots that Produced Roots ([3]; glufosinate 0.5 mg/L in rooting medium): 50%
- Number of Shoots Producing Roots ([3]; glufosinate 0.5 mg/L, 10 shoots cultivated): 5
- Percentage of Shoots that Produced Roots ([3]; glufosinate 1.0 mg/L in rooting medium): 0%
- Number of Shoots Producing Roots ([3]; glufosinate 1.0 mg/L, 30 shoots cultivated): 0
- Percentage of Shoots that Produced Roots ([3]; glufosinate 2.0 mg/L in rooting medium): 0%
- Number of Shoots Producing Roots ([3]; glufosinate 2.0 mg/L, 30 shoots cultivated): 0
- Percentage of Shoots that Produced Roots ([3]; glufosinate 3.0 mg/L in rooting medium): 0%
- Number of Shoots Producing Roots ([3]; glufosinate 3.0 mg/L, 30 shoots cultivated): 0
- Percentage of Shoots that Produced Roots ([3]; glufosinate 4.0 mg/L in rooting medium): 0%
- Number of Shoots Producing Roots ([3]; glufosinate 4.0 mg/L, 25 shoots cultivated): 0
- Percentage of Shoots that Produced Roots ([3]; glufosinate 5.0 mg/L in rooting medium): 0%
- Number of Shoots Producing Roots ([3]; glufosinate 5.0 mg/L, 25 shoots cultivated): 0
- Percentage of Shoots that Produced Roots ([3]; glufosinate 6.0 mg/L in rooting medium): 0%
- Number of Shoots Producing Roots ([3]; glufosinate 6.0 mg/L, 25 shoots cultivated): 0
- root formation of soybean shoots ([3]; rooting media supplemented with 1 to 6 mg/L glufosinate): no root formation was observed
- effective glufosinate concentration for inhibition of soybean shoot growth and development ([3]; rooting medium, non-transgenic shoots): at least 1.0 mg/L
